The structures appear in SMILES notation. A value given as a limit tells only on which side of the number the result lay.

The target in one test is T1, cKIT (Homo sapiens, UniProt P10721).
T1 construct: The kinase domain of cKIT was assayed in 50 mM Hepes; purchased Upstate 14-559
Description: Inhibition of cKIT kinase in an in vitro biochemical assay (alphascreen). Conditions: tested at about 1 μM. As to the method: (§1) The IC50 values for the inhibition of RTKs were determined in the alphascreen format measuring the inhibition by compound of phosphate transfer to a substrate by the respective enzyme. Briefly, the respective RTK domain purchased as human recombinant protein (cKIT Upstate #14-559, PDGFRb Invitrogen #P3082) were incubated with serial dilutions of compound in the presence of substrate and ATP concentrations within 3 times the Km of the enzyme.
(§2) The kinase domain of cKIT was assayed in 50 mM Hepes, pH=7.5, 5 mM MgCl2, 10 mM MnCl2, 1 mM DTT, 0.1% BSA with 0.06 uM biotinylated peptide substrate (GGLFDDPSYVNVQNL-NH2) and 15 μM ATP (ATP KM apparent =15 μM). The kinase domain of PDGFRβ was assayed in 50 mM Hepes, pH=7.5, 20 mM MgCl2, 1 mM DTT, 0.1% BSA with 0.1 μM biotinylated peptide substrate (GGLFDDPSYVNVQNL-NH2) and 10 μM ATP (ATP KM apparent=25 μM). Reactions were incubated at room temperature for 3 to 4 hr and stopped with buffer (20 mM EDTA, 0.01% Tween-20 for both PDGFRβ and cKIT). Alphascreen PY20 beads were added to the stopped cKIT reactions and PY20 Ab/Protein A Alphascreen beads were added to the PDGFRβ stopped reactions. Both reactions were incubated overnight and read on the Alphascreen reader. The concentration of compound for 50% inhibition (IC50) was calculated employing non-linear regression using XL-Fit data analysis software. As a control compound, staurosporine is run in every assay and a Z′>0.5 is required to validate results.
(Bead proximity is the source of the signal in Alpha formats.)

The target in another test is T2, PDGFRb (Homo sapiens, UniProt P09619).
T2 construct: The kinase domain of PDGFRβ was assayed in 50 mM Hepes; purchased Invitrogen P3082
Description: Inhibition of PDGFRb kinase in an in vitro biochemical assay (alphascreen). The settings on record: tested at about 1 μM; read-out: PDGFR % inhibition at 1 μM. As to the method: as §1, §2

In test [1] the target is T3, cytoplasmic domain of the human CSF-1R (Homo sapiens, UniProt P07333).
T3 construct: Recombinant protein corresponding to the cytoplasmic domain of the human CSF-1R; purchased Invitrogen Corporation, Carlsbad, Calif; U.S.A. PV3249
T3 sequence (P07333 539-972 limits assumed): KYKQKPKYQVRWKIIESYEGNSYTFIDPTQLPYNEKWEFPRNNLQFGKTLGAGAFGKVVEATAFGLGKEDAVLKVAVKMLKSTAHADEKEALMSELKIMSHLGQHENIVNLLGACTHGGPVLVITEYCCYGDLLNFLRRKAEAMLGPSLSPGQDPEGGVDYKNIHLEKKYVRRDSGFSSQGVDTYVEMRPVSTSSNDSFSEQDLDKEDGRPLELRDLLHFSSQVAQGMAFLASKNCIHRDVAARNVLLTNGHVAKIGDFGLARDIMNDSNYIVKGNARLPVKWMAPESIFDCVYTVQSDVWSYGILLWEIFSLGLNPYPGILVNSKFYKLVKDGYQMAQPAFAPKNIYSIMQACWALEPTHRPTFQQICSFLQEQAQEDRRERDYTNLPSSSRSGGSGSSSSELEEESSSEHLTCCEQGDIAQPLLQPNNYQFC
Description: In vitro kinase assay for CSF-1R (AlphaScreen). The format is biochemical. Conditions: tested at about 1 μM. As to the method: The kinase activity of various protein tyrosine kinases can be measured by providing ATP and a suitable peptide or protein tyrosine-containing substrate, and assaying the transfer of phosphate moiety to the tyrosine residue. Recombinant protein corresponding to the cytoplasmic domain of the human CSF-1R was purchased from Invitrogen Corporation, Carlsbad, Calif. U.S.A. (#PV3249). For each assay, test compounds were serially diluted, starting at 25 μM with 3 fold dilutions, in DMSO in 384 well plates then mixed with an appropriate kinase reaction buffer consisting of 50 mM Hepes, 5 mM MgCl2, 10 mM MnCl2, 0.1% BSA, pH 7.5, 1.0 mM dithiothreitol, 0.01% Tween 80 plus […]. Kinase protein and an appropriate biotinylated peptide substrate at 50 nM were added to give a final volume of 20 μL, reactions were incubated for 2 hours at room temperature and stopped by the addition of 10 μL of 45 mM EDTA, 50 mM Hepes pH 7.5. Added to the stopped reaction mix was 30 μL of PT66 Alphascreen beads (Perkin Elmer, Boston, Mass., U.S.A.). The reaction was incubated overnight and read on the Envision (Perkin Elmer). Phosphorylated peptide product was measured with the AlphaScreen system (Perkin Elmer) using acceptor beads coated with anti-phosphotyrosine antibody PT66 and donor beads coated with streptavidin that emit a fluorescent signal at the 520-620 nm emission wave length if in close proximity. The concentration of each compound for 50% inhibition (IC50) was calculated by non-linear regression using XL Fit data analysis software.
CSF-1R kinase was assayed in 50 mM Hepes pH 7.0, 5 mM MgCl2, 10 mM MnCl2, 1 mM DTT, 1 mg/mL BSA, 1.0 μM ATP, and 0.05 μM biotin-GGGGRPRAATF-NH2 (SEQ ID NO:2) peptide substrate. CSF-1R kinase was added at final concentration of 4 nM.

T2 sequence (P09619 600-962 limits assumed): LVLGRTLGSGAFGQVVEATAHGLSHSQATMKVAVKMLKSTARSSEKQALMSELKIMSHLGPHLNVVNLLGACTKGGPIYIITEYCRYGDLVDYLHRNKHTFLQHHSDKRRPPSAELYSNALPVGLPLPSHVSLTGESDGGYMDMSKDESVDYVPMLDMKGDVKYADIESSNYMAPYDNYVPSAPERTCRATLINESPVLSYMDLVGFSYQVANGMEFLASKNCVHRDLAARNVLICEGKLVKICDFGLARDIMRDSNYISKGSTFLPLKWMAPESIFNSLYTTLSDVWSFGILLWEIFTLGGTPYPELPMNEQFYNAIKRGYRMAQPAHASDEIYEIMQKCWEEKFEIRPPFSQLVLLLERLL
T1 sequence (P10721 589-937 limits assumed): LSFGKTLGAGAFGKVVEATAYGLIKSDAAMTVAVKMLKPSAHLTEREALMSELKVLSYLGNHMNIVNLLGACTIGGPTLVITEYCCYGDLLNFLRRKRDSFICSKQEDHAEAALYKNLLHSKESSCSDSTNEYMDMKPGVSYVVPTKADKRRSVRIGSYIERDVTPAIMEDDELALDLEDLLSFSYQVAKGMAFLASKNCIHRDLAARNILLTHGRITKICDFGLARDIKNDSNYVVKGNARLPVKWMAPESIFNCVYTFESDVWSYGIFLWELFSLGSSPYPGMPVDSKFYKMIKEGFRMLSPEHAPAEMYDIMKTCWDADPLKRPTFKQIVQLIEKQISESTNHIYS

For orientation: inhibition means the change of the read-out against control, counted positive when it falls. For the molecule `CNC(=O)c1cc(Nc2ccc3nc(N[C@@H]4CCCC[C@H]4O)sc3c2)ccn1` [Example 79, 4-(2-((1R,2R)-2-hydroxycyclohexylamino)benzo[d]thiazol-6-ylamino)-N-methylpicolinamide], the inhibition at 1 µM was 13% on cKIT, less than 1% at PDGFRb and 97% in test [1].
In the same order, the values of `CNC(=O)c1cc(Oc2ccc3sc(N[C@@H]4CCCC[C@H]4O)nc3c2)ccn1` [Example 81, 4-(2-((1R,2R)-2-hydroxycyclohexylamino)benzo[d]thiazol-5-yloxy)-N-methylpicolinamide] are 39%, 71% and 99%.
The corresponding values for `CNC(=O)c1cc(Oc2ccc3nc(NCC4CC4)ncc3c2)ccn1` [Example 53, 4-(2-(cyclopropylmethylamino)quinazolin-6-yloxy)-N-methylpicolinamide] are less than 1%, 9% and 83%.
For `CNC(=O)c1cc(Oc2ccc3nc(NCc4ccccc4N4CCOCC4)ncc3c2)ccn1` [Example 41, N-methyl-4-(2-(2-morpholinobenzylamino)quinazolin-6-yloxy)picolinamide], the inhibition at 1 µM at cKIT was 6%; at PDGFRb it was 92%; in test [1] it was 100%.
In the same order, the values of `CNC(=O)c1cc(Oc2ccc3nc(NCC4CCCCC4)ncc3c2)ccn1` [Example 39, 4-(2-(cyclohexylmethylamino)quinazolin-6-yloxy)-N-methylpicolinamide] are 10%, 52% and 99%.
For the molecule `CNC(=O)c1cc(Oc2ccc3nc(NCCN4CCOCC4)ncc3c2)ccn1` [Example 35, N-methyl-4-(2-(2-morpholinoethylamino)quinazolin-6-yloxy)picolinamide], the inhibition at 1 µM at cKIT is 7%; on PDGFRb, less than 1%; in test [1], 71%.
As to `CNC(=O)c1cc(Oc2ccc3nc(Nc4cccc5c4OCCO5)ncc3c2)ccn1` [Example 40, 4-(2-(2,3-dihydrobenzo[b][1,4]dioxin-5-ylamino)quinazolin-6-yloxy)-N-methylpicolinamide], the inhibition at 1 µM against cKIT is 13%; on PDGFRb, less than 1%; in test [1], 100%.
As to `CNC(=O)c1cc(Oc2ccc3nc(Nc4cccc5c4OC(F)(F)O5)ncc3c2)ccn1` [Example 68, 4-(2-(2,2-difluorobenzo[d][1,3]dioxol-4-ylamino)quinazolin-6-yloxy)-N-methylpicolinamide], the inhibition at 1 µM amounted to 10% on cKIT, 2% at PDGFRb and 98% in test [1].
Turning to `CNC(=O)c1cc(Oc2ccc3nc(NC4CCCC4)ncc3c2)ccn1` [Example 66, 4-(2-(cyclopentylamino)quinazolin-6-yloxy)-N-methylpicolinamide], the inhibition at 1 µM at cKIT is 13%; at PDGFRb it was less than 1%; in test [1], 96%.
The corresponding values for `CNC(=O)c1cc(Sc2ccc3nc(NCC4CCCCC4)sc3c2)ccn1` [Example 78, 4-(2-(cyclohexylmethylamino)benzo [d]thiazol-6-ylthio)-N-methylpicolinamide] are 13%, 34% and 100%.
In the same order, the values of `Nc1cc(Oc2ccc3nc(Nc4ccccc4N4CCOCC4)ncc3c2)ccn1` [Example 29, 6-(2-aminopyridin-4-yloxy)-N-(2-morpholinophenyl)quinazolin-2-amine] are 9%, 1% and 90%.
Consider `CNC(=O)c1cc(Oc2ccc3nc(NCC4(N5CCOCC5)CCCCC4)ncc3c2)ccn1` [Example 37, N-methyl-4-(2-((1-morpholinocyclohexyl)methylamino)quinazolin-6-yloxy)picolinamide], for which the inhibition at 1 µM on cKIT was 16%; on PDGFRb, less than 1%; in test [1], 99%.
In the same order, the values of `CNC(=O)c1cc(Oc2ccc3nc(N[C@@H]4CCCC[C@H]4N)ncc3c2)ccn1` [Example 73, 4-(2-((1R,2R)-2-aminocyclohexylamino)quinazolin-6-yloxy)-N-methylpicolinamide] are 8%, 19% and 62%.
The corresponding values for `CNC(=O)c1cc(Oc2ccc3nc(Nc4ccccc4CN4CCOCC4)ncc3c2)ccn1` [Example 67, N-methyl-4-(2-(2-(morpholinomethyl)phenylamino)quinazolin-6-yloxy)picolinamide] are 13%, less than 1% and 96%.
In the same order, the values of `CNC(=O)c1cc(Oc2ccc3nc(NC4CCN(C(=O)OC(C)(C)C)CC4)ncc3c2)ccn1` [Example 57, tert-butyl 4-(6-(2-(methylcarbamoyl)pyridin-4-yloxy)quinazolin-2-ylamino)piperidine-1-carboxylate] are 12%, 2% and 93%.
`CCCNc1ncc2cc(Oc3ccnc(C(=O)NC)c3)ccc2n1` [Example 52, N-methyl-4-(2-(propylamino)quinazolin-6-yloxy)picolinamide]: the inhibition at 1 µM on cKIT is 7%; on PDGFRb it was 9%; in test [1] it was 52%.
In the same order, the values of `CNC(=O)c1cc(Oc2ccc3nc(N[C@@H](C)C4CCCCC4)ncc3c2)ccn1` [Cmpd 16, (S)-4-(2-(1-cyclohexylethylamino)quinazolin-6-yloxy)-N-methylpicolinamide] are 58%, 26% and 100%.
Take `CNC(=O)c1cc(Oc2ccc3nc(N[C@H](CO)C4CCCCC4)ncc3c2)ccn1` [Cmpd 18, (S)-4-(2-(1-cyclohexyl-2-hydroxyethylamino)quinazolin-6-yloxy)-N-methylpicolinamide]: the inhibition at 1 µM against cKIT was 30%; on PDGFRb, 31%; in test [1], 99%.
`CNC(=O)c1cc(Oc2ccc3nc(NCc4ccc5c(c4)OCCO5)ncc3c2)ccn1` [Example 43, 4-(2-((2,3-dihydrobenzo[b][1,4]dioxin-6-yl)methylamino)quinazolin-6-yloxy)-N-methylpicolinamide]: the inhibition at 1 µM on cKIT is 24%; on PDGFRb it was less than 1%; in test [1], 98%.

The record behind these values is patent US20100261679A1 (priority 2007, published 2010).
